# Experimental data taken from the kinase profiling compilation of Christmann-Franck et al. (2016).
# Target: GSK3A (human) (UniProt P49840)
# Experiment: KINOMEscan competition binding
# Settings: compound 10.0 µM
# GSK3A (human), sequence (P49840 whole entry, looked up): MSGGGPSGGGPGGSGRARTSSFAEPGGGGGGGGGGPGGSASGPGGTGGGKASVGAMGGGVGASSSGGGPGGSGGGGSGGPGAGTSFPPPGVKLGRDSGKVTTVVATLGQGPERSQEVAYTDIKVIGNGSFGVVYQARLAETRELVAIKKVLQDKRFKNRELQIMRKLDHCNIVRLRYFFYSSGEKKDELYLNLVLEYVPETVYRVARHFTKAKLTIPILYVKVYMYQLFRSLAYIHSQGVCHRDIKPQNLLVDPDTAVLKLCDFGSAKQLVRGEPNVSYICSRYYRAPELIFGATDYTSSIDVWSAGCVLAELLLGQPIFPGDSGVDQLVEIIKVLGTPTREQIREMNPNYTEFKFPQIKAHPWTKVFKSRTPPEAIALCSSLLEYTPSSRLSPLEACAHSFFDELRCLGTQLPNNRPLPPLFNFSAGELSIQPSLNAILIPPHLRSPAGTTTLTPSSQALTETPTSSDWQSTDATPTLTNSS
row,SMILES,"kinase still bound, per cent of control [%]"
1,CCN1CCN(Cc2ccc(NC(=O)c3ccc(C)c(/C=C/c4cnc(Nc5cc(N6CCNCC6)nc(C)n5)cn4)c3)cc2C(F)(F)F)CC1,81
2,COc1cc(N2CCC(N3CCN(C)CC3)CC2)ccc1Nc1ncc(Cl)c(Nc2ccccc2S(=O)(=O)C(C)C)n1,40
3,CCOc1cc(N2CCC(N3CCCCC3)CC2)ccc1Nc1nc(Nc2ccccc2S(=O)(=O)C(C)C)c2cn[nH]c2n1,100

# Target: AKT1 (human) (UniProt P31749)
# Experiment: KINOMEscan competition binding
# Settings: compound 10.0 µM
# AKT1 (human), sequence (P31749 whole entry, looked up): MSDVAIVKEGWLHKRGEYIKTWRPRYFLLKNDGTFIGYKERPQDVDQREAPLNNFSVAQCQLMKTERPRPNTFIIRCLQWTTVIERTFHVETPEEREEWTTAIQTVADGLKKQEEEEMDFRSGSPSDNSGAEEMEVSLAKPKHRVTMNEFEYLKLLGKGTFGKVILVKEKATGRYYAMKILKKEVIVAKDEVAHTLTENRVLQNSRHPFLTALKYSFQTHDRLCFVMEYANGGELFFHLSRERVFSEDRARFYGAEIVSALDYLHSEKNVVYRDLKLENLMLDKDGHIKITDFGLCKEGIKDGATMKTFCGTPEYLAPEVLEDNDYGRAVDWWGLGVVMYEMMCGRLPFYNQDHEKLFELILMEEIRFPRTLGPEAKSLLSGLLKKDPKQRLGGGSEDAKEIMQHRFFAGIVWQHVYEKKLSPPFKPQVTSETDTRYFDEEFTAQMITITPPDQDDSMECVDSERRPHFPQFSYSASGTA
row,SMILES,"kinase still bound, per cent of control [%]"
1,CCN1CCN(Cc2ccc(NC(=O)c3ccc(C)c(/C=C/c4cnc(Nc5cc(N6CCNCC6)nc(C)n5)cn4)c3)cc2C(F)(F)F)CC1,100
2,COc1cc(N2CCC(N3CCN(C)CC3)CC2)ccc1Nc1ncc(Cl)c(Nc2ccccc2S(=O)(=O)C(C)C)n1,40
3,CCOc1cc(N2CCC(N3CCCCC3)CC2)ccc1Nc1nc(Nc2ccccc2S(=O)(=O)C(C)C)c2cn[nH]c2n1,100

# Target: NTRK1 (human) (UniProt P04629)
# Experiment: KINOMEscan competition binding
# Settings: compound 10.0 µM
row,SMILES,"kinase still bound, per cent of control [%]"
1,CCN1CCN(Cc2ccc(NC(=O)c3ccc(C)c(/C=C/c4cnc(Nc5cc(N6CCNCC6)nc(C)n5)cn4)c3)cc2C(F)(F)F)CC1,0.45
2,COc1cc(N2CCC(N3CCN(C)CC3)CC2)ccc1Nc1ncc(Cl)c(Nc2ccccc2S(=O)(=O)C(C)C)n1,12
3,CCOc1cc(N2CCC(N3CCCCC3)CC2)ccc1Nc1nc(Nc2ccccc2S(=O)(=O)C(C)C)c2cn[nH]c2n1,72

# Target: CSNK1G2 (human) (UniProt P78368)
# Experiment: KINOMEscan competition binding
# Settings: compound 10.0 µM
row,SMILES,"kinase still bound, per cent of control [%]"
1,CCN1CCN(Cc2ccc(NC(=O)c3ccc(C)c(/C=C/c4cnc(Nc5cc(N6CCNCC6)nc(C)n5)cn4)c3)cc2C(F)(F)F)CC1,96
2,COc1cc(N2CCC(N3CCN(C)CC3)CC2)ccc1Nc1ncc(Cl)c(Nc2ccccc2S(=O)(=O)C(C)C)n1,40
3,CCOc1cc(N2CCC(N3CCCCC3)CC2)ccc1Nc1nc(Nc2ccccc2S(=O)(=O)C(C)C)c2cn[nH]c2n1,46

# Target: SRPK1 (human) (UniProt Q96SB4)
# Experiment: KINOMEscan competition binding
# Settings: compound 10.0 µM
row,SMILES,"kinase still bound, per cent of control [%]"
1,CCN1CCN(Cc2ccc(NC(=O)c3ccc(C)c(/C=C/c4cnc(Nc5cc(N6CCNCC6)nc(C)n5)cn4)c3)cc2C(F)(F)F)CC1,77
2,COc1cc(N2CCC(N3CCN(C)CC3)CC2)ccc1Nc1ncc(Cl)c(Nc2ccccc2S(=O)(=O)C(C)C)n1,2.2
3,CCOc1cc(N2CCC(N3CCCCC3)CC2)ccc1Nc1nc(Nc2ccccc2S(=O)(=O)C(C)C)c2cn[nH]c2n1,100

# Target: EPHA7 (human) (UniProt Q15375)
# Experiment: KINOMEscan competition binding
# Settings: compound 10.0 µM
# EPHA7 (human), sequence (Q15375 whole entry, looked up): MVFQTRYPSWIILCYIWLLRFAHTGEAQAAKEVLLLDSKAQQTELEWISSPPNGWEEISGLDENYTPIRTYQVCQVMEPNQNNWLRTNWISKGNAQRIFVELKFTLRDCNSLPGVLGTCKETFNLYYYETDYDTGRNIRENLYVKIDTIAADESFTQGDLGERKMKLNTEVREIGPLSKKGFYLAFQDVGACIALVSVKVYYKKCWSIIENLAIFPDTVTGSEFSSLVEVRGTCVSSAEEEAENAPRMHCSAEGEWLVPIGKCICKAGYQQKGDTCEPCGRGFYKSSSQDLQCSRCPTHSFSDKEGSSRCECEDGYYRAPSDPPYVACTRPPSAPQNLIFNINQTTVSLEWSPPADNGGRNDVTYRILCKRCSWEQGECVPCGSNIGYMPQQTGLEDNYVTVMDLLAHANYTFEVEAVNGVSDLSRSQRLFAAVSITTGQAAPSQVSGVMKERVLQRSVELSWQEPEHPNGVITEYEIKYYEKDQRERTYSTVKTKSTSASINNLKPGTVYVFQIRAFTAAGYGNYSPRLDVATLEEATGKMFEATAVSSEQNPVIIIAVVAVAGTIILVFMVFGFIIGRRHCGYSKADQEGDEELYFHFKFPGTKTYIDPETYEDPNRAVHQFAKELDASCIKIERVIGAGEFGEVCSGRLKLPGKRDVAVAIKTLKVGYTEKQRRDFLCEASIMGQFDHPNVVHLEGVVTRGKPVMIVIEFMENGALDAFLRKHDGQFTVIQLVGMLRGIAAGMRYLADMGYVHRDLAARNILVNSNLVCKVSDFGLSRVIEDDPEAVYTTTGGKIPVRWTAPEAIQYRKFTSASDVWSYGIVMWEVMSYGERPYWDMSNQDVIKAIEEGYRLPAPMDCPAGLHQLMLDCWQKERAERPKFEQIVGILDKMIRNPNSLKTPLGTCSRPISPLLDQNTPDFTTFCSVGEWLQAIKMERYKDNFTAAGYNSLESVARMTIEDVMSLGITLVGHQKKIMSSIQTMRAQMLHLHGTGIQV
row,SMILES,"kinase still bound, per cent of control [%]"
1,CCN1CCN(Cc2ccc(NC(=O)c3ccc(C)c(/C=C/c4cnc(Nc5cc(N6CCNCC6)nc(C)n5)cn4)c3)cc2C(F)(F)F)CC1,76
2,COc1cc(N2CCC(N3CCN(C)CC3)CC2)ccc1Nc1ncc(Cl)c(Nc2ccccc2S(=O)(=O)C(C)C)n1,0.4
3,CCOc1cc(N2CCC(N3CCCCC3)CC2)ccc1Nc1nc(Nc2ccccc2S(=O)(=O)C(C)C)c2cn[nH]c2n1,100

# Target: PRKCE (human) (UniProt Q02156)
# Experiment: KINOMEscan competition binding
# Settings: compound 10.0 µM
row,SMILES,"kinase still bound, per cent of control [%]"
1,CCN1CCN(Cc2ccc(NC(=O)c3ccc(C)c(/C=C/c4cnc(Nc5cc(N6CCNCC6)nc(C)n5)cn4)c3)cc2C(F)(F)F)CC1,68
2,CCOc1cc(N2CCC(N3CCCCC3)CC2)ccc1Nc1nc(Nc2ccccc2S(=O)(=O)C(C)C)c2cn[nH]c2n1,62
3,CCN1CCN(Cc2ccc(NC(=O)c3ccc(C)c(Oc4ccnc5[nH]ccc45)c3)cc2C(F)(F)F)CC1,20

# Target: CAMK1D (human) (UniProt Q8IU85)
# Experiment: KINOMEscan competition binding
# Settings: compound 10.0 µM
# CAMK1D (human), sequence (Q8IU85 whole entry, looked up): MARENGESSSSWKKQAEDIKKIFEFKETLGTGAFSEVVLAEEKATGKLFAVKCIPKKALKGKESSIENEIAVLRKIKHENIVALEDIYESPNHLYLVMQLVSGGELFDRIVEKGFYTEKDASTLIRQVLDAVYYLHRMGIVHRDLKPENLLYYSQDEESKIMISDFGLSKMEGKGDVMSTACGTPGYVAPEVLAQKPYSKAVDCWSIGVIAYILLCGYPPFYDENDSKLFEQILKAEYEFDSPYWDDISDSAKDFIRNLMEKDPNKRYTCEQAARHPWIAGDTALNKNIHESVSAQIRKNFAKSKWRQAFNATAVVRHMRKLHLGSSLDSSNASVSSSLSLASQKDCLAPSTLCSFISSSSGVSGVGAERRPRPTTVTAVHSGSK
row,SMILES,"kinase still bound, per cent of control [%]"
1,CCN1CCN(Cc2ccc(NC(=O)c3ccc(C)c(/C=C/c4cnc(Nc5cc(N6CCNCC6)nc(C)n5)cn4)c3)cc2C(F)(F)F)CC1,100
2,CCOc1cc(N2CCC(N3CCCCC3)CC2)ccc1Nc1nc(Nc2ccccc2S(=O)(=O)C(C)C)c2cn[nH]c2n1,1
3,CCN1CCN(Cc2ccc(NC(=O)c3ccc(C)c(Oc4ccnc5[nH]ccc45)c3)cc2C(F)(F)F)CC1,6.2

# Target: INSR (human) (UniProt P06213)
# Experiment: KINOMEscan competition binding
# Settings: compound 10.0 µM
# INSR (human), sequence (P06213 whole entry, looked up): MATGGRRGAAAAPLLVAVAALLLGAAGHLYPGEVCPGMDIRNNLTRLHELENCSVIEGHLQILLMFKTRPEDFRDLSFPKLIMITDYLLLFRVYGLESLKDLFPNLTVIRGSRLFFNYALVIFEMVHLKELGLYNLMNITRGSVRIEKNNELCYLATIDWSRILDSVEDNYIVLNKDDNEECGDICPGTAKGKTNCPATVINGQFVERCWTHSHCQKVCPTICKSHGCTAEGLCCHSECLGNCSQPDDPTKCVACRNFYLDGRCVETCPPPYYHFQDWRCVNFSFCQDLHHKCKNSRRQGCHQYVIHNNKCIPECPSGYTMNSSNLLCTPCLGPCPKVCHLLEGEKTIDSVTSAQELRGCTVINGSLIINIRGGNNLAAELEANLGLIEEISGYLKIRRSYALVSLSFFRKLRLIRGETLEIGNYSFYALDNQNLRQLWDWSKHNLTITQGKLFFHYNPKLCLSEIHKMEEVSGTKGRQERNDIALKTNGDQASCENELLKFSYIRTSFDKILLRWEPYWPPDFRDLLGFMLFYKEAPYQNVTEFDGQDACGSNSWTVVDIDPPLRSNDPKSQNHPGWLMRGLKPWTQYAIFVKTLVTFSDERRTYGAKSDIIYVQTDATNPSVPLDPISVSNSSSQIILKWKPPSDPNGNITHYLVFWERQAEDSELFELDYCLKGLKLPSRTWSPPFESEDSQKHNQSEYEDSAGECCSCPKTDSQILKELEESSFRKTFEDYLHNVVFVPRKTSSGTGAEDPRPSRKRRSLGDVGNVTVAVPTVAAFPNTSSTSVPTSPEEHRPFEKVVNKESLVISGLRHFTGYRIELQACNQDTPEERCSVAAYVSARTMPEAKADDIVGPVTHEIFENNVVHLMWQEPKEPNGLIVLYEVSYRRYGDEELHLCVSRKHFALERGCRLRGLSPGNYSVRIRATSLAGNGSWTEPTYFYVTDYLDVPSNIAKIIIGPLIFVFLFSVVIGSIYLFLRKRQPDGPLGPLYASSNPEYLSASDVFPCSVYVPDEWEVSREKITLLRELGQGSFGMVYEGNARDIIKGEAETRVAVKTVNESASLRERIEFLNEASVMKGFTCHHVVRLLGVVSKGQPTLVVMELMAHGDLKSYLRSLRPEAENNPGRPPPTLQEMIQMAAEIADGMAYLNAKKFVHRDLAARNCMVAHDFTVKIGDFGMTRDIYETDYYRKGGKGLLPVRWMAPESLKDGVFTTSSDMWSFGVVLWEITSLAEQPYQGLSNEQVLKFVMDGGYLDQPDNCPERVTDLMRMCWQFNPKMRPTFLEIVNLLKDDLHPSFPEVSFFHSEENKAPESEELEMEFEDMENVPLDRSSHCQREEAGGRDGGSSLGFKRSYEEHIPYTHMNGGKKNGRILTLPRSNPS
row,SMILES,"kinase still bound, per cent of control [%]"
1,CCN1CCN(Cc2ccc(NC(=O)c3ccc(C)c(/C=C/c4cnc(Nc5cc(N6CCNCC6)nc(C)n5)cn4)c3)cc2C(F)(F)F)CC1,65
2,COc1cc(N2CCC(N3CCN(C)CC3)CC2)ccc1Nc1ncc(Cl)c(Nc2ccccc2S(=O)(=O)C(C)C)n1,0
3,CCOc1cc(N2CCC(N3CCCCC3)CC2)ccc1Nc1nc(Nc2ccccc2S(=O)(=O)C(C)C)c2cn[nH]c2n1,0.3
4,CCN1CCN(Cc2ccc(NC(=O)c3ccc(C)c(Oc4ccnc5[nH]ccc45)c3)cc2C(F)(F)F)CC1,30

# Target: MAP4K4 (human) (UniProt O95819)
# Experiment: KINOMEscan competition binding
# Settings: compound 10.0 µM
# MAP4K4 (human), sequence (O95819 whole entry, looked up): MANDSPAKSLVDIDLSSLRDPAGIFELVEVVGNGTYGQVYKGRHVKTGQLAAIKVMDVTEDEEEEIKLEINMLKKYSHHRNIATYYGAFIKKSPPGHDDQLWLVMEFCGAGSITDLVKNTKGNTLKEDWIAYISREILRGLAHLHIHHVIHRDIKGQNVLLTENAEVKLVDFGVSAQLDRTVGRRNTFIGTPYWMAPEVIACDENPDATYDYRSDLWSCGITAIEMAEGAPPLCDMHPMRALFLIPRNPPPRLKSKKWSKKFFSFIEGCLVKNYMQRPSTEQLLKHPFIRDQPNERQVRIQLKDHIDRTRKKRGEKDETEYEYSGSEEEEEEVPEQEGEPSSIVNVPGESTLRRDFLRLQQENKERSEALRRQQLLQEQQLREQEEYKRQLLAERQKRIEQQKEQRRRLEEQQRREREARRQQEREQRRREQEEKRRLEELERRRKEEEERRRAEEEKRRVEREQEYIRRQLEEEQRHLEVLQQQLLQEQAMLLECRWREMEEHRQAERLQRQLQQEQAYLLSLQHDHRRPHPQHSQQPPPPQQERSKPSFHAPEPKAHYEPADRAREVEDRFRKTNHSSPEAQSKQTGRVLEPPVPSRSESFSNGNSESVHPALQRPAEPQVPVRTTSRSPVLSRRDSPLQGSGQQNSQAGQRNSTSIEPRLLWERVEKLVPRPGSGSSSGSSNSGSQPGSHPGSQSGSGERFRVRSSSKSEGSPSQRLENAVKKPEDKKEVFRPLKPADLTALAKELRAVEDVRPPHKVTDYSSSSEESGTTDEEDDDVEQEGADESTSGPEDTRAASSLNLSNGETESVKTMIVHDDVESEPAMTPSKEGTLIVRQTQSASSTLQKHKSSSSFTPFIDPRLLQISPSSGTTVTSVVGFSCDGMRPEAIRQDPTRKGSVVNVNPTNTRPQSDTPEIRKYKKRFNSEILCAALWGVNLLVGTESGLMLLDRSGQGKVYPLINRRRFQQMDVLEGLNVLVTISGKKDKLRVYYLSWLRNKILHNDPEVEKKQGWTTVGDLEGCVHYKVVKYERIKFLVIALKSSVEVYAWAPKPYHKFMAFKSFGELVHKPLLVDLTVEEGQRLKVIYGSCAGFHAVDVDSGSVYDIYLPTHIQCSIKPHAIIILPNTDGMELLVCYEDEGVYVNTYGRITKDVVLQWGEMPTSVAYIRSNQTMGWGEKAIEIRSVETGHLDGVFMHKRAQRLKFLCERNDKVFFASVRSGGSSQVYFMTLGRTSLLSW
row,SMILES,"kinase still bound, per cent of control [%]"
1,CCN1CCN(Cc2ccc(NC(=O)c3ccc(C)c(/C=C/c4cnc(Nc5cc(N6CCNCC6)nc(C)n5)cn4)c3)cc2C(F)(F)F)CC1,0.1
2,COc1cc(N2CCC(N3CCN(C)CC3)CC2)ccc1Nc1ncc(Cl)c(Nc2ccccc2S(=O)(=O)C(C)C)n1,5.4
3,CCOc1cc(N2CCC(N3CCCCC3)CC2)ccc1Nc1nc(Nc2ccccc2S(=O)(=O)C(C)C)c2cn[nH]c2n1,100
4,CCN1CCN(Cc2ccc(NC(=O)c3ccc(C)c(Oc4ccnc5[nH]ccc45)c3)cc2C(F)(F)F)CC1,0

# Target: CAMK2B (human) (UniProt Q13554)
# Experiment: KINOMEscan competition binding
# Settings: compound 10.0 µM
row,SMILES,"kinase still bound, per cent of control [%]"
1,CCN1CCN(Cc2ccc(NC(=O)c3ccc(C)c(/C=C/c4cnc(Nc5cc(N6CCNCC6)nc(C)n5)cn4)c3)cc2C(F)(F)F)CC1,92
2,COc1cc(N2CCC(N3CCN(C)CC3)CC2)ccc1Nc1ncc(Cl)c(Nc2ccccc2S(=O)(=O)C(C)C)n1,5.8
3,CCOc1cc(N2CCC(N3CCCCC3)CC2)ccc1Nc1nc(Nc2ccccc2S(=O)(=O)C(C)C)c2cn[nH]c2n1,65

# Target: EPHB4 (human) (UniProt P54760)
# Experiment: KINOMEscan competition binding
# Settings: compound 10.0 µM
row,SMILES,"kinase still bound, per cent of control [%]"
1,CCN1CCN(Cc2ccc(NC(=O)c3ccc(C)c(/C=C/c4cnc(Nc5cc(N6CCNCC6)nc(C)n5)cn4)c3)cc2C(F)(F)F)CC1,23
